Here are results for 1 compound from article PMC6934184, “Selective DNA-PKcs inhibition extends the therapeutic index of localized radiotherapy and chemotherapy” (The Journal of Clinical Investigation, 2019).

For this test, the target named is T1, CAMK4 (CaMKIV) (Homo sapiens, UniProt Q16566).
T1 construct: purchased Thermo Fisher Scientific (Life Technologies) SelectScreen
Description: SelectScreen Z'LYTE. The test is classed as biochemical. In outline:
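Percent values come from Thermo SelectScreen profiling of NU5455, combining activity and binding assays. CSF1R was run in Z'LYTE format at Km app ATP, and CAMK1 in Adapta format with ATP listed at 10.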

T1 sequence (Q16566 whole entry): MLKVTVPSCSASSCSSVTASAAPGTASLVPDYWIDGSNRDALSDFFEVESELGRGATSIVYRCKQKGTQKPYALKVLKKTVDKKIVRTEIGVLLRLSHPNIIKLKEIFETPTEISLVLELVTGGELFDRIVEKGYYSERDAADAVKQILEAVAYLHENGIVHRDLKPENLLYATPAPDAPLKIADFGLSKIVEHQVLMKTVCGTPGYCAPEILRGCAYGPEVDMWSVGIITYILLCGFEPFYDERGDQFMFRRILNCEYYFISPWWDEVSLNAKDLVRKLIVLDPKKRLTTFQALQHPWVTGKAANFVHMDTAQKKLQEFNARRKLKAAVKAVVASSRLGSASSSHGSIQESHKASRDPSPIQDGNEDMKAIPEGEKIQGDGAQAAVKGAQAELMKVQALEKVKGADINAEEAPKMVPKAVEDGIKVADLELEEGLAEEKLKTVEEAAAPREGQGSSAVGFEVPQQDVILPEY

`CN(C(=O)CN1CCOCC1)c1ccc2sc3c(-c4cccc5c(=O)cc(N6CC7CCC(C6)O7)oc45)cccc3c2c1` [NU5455]: the inhibition at 1 µM was -10.4%.
